The record followed here is ChEMBL document CHEMBL1157348, “The alkaloid conessine and analogues as potent histamine H3 receptor antagonists” (J Med Chem, 2008).

Active and inactive are the calls of the source. The rule behind the calls is not given here. Bounds are passed on as bounds.

A short description of data set [1]: Binding affinity at dopamine receptor.
Data set [2] in a line: Binding affinity at serotonin receptor.
Data set [3] can be described thus: Half life in rat. Conditions: in vivo. In kind it is ADME, organism-based.
A further data set relates to Rattus norvegicus. As to the kind of experiment: Toxicity in rat assessed as CNS side effects at 1.3 to 13 mg/kg, ip. In kind it is organism-based. Details: dose 1.3-13 mg/kg, route intraperitoneal. Conditions: in vivo.
A further data set has as its target T1, Glucocorticoid receptor (Homo sapiens, UniProt P04150).
T1 sequence (P04150 whole entry): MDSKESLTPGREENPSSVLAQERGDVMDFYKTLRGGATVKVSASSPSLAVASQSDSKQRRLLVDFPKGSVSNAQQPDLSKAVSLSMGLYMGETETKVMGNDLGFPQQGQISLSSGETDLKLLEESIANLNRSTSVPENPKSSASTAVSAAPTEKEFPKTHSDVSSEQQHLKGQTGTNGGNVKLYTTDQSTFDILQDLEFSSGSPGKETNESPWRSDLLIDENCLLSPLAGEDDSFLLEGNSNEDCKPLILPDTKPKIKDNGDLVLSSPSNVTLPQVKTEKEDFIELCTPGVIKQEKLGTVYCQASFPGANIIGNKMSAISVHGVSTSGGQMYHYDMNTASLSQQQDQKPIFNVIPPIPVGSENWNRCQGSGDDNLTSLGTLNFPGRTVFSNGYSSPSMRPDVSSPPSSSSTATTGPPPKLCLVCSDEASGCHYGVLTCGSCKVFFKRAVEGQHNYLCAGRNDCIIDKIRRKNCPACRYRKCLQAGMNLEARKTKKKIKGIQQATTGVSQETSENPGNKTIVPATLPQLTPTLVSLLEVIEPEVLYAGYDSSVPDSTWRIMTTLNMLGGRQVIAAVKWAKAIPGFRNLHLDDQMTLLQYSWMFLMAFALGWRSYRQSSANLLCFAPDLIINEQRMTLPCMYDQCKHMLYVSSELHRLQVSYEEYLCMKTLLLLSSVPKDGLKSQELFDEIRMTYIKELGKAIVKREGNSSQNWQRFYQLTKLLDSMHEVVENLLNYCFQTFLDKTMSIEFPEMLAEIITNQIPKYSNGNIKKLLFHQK
As to the kind of experiment: Binding affinity at glucocorticoid receptor.

The next data set addresses T2, Estrogen receptor (Homo sapiens, UniProt P03372).
T2 sequence (P03372 whole entry): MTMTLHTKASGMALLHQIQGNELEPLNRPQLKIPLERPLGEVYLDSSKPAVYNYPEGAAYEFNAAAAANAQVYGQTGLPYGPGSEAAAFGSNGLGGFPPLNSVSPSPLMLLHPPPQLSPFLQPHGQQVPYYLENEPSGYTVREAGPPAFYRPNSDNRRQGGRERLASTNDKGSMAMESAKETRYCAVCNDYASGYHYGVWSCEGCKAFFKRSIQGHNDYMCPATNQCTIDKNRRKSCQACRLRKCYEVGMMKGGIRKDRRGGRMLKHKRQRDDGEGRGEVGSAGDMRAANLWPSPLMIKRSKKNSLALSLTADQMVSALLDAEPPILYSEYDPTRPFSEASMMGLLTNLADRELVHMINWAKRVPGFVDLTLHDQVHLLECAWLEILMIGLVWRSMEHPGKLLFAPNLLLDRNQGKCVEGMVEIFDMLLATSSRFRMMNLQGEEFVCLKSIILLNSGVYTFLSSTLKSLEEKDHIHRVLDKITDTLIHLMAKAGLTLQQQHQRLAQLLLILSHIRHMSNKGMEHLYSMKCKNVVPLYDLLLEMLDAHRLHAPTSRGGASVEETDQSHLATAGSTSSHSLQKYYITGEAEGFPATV
Put plainly: Binding affinity at estrogen receptor.

The target of a further data set is T3, Progesterone receptor (Homo sapiens, UniProt P06401).
T3 sequence (P06401 whole entry): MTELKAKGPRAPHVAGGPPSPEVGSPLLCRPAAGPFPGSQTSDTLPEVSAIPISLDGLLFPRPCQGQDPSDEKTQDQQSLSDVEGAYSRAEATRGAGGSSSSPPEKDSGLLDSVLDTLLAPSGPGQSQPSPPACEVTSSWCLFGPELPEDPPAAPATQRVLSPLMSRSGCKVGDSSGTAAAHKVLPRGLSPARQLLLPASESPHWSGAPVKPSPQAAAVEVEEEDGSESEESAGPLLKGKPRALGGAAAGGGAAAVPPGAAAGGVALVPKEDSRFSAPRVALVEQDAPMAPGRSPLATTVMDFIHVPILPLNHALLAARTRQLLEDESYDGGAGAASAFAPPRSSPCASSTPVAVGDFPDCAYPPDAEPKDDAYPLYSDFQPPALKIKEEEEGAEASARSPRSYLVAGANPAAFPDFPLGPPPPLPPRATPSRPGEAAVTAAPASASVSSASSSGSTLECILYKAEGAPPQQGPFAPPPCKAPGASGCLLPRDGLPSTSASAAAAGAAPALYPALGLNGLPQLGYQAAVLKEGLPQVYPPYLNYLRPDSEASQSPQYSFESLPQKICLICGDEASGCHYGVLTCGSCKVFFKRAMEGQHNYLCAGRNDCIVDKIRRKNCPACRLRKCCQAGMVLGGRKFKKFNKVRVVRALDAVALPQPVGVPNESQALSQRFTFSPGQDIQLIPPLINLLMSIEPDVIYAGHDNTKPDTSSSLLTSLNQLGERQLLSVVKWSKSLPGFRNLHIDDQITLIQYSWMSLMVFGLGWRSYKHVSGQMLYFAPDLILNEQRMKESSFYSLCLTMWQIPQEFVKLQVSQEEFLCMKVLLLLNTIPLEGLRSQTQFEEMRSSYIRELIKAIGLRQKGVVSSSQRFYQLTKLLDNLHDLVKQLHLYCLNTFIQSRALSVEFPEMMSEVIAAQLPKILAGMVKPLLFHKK
As to the kind of experiment: Binding affinity at progesterone receptor.

A further data set relates to Mus musculus. Put plainly: Increase in learning and memory performance in mouse at 0.01 mg/kg, ip after 24 hrs by passive avoidance test. The class given is functional, organism-based. Details: dose 0.01 mg/kg.

By Ki is commonly meant the dissociation constant of the complex between target and ligand, obtained from inhibition or displacement. Lower therefore signals a stronger hold on the target. Usually half-life stands for how long it takes for the measured level to halve.

For the compound `CN[C@@H](C(=O)N(C)[C@H]1CC[C@@]2(C)C(=CC[C@H]3[C@@H]4CC[C@@H]5[C@H](C)N(C)C[C@@]54CC[C@@H]32)C1)C(C)C`, the Ki in data set [1] is over 10 µM; in data set [2], over 10 µM; on Glucocorticoid receptor, over 30 µM; at Estrogen receptor, over 30 µM; at Progesterone receptor, over 30 µM. The half-life in data set [3] is 77 h. The Activity result in the data set with Rattus norvegicus is reported as “Non-toxic”. Moreover, the outcome with Mus musculus was Active.
